Data on 23 molecules can be found in patent US20220282217A1, “COMPOSITIONS AND METHODS FOR PREPARING T CELL COMPOSITIONS AND USES THEREOF” (priority 2019, published 2022).

The structures appear in SMILES notation. Where a SMILES comes first, the peptide text is derived from it.

Broadly, the IC50 is the concentration that gives 50% inhibition.

In one experiment the target is HLA-A03.01 (Homo sapiens, UniProt P04439). Put plainly: Class I MHC peptide binding affinity (displacement of radiolabeled reference peptide). The conditions noted are these: allele A03.01; read-out: Observed Affinity (IC50; (nM)).
For experiment [1], the target named is T1, HLA-A02.01 (Homo sapiens, UniProt P04439, D140Y/D185E/D98H/E176V/E277Q/G131W/G231S/I119V/I121R/I166T/I218V/N151K/N90K/P208A/P217A/Q86G/Q94H/R138H/R169H).
T1 construct: made in house; host or cells: E. coli
The experiment can be described thus: Class I MHC peptide binding stability (pMHC-I dissociation, 125I-labeled light chain). The note with it: allele A02.01.

The target of experiment [2] is HLA-A02.01 (Homo sapiens, UniProt P04439, D140Y/D185E/D98H/E176V/E277Q/G131W/G231S/I119V/I121R/I166T/I218V/L300P/L318F/N151K/N90K/P208A/P217A/Q86G/Q94H/R138H/R169H/T345S). The experiment can be described thus: Class I MHC peptide binding affinity (displacement of radiolabeled reference peptide). The note with it: allele A02.01; read-out: Observed Affinity (IC50; (nM)). Put shortly:
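Steps: form MHCI complexes carrying labeled reference peptide; add competitor peptides at graded doses; incubate 2 days; separate complex-bound from free label by size-exclusion chromatography and count what remains bound.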

Regarding `CC[C@H](C)[C@H](NC(=O)[C@H](C)N)C(=O)N[C@@H](CO)C(=O)N[C@H](C(=O)N[C@@H](CCCNC(=N)N)C(=O)N[C@@H](CC(=O)O)C(=O)N1CCC[C@H]1C(=O)N[C@@H](CC(C)C)C(=O)N[C@@H](CO)C(=O)N[C@@H](CCCCN)C(=O)O)[C@@H](C)O` (H-AISTRDPLSK-OH; N-terminus and C-terminus assumed), the IC50 on HLA-A03.01 was 57.5 nM.

`CC(C)C[C@H](NC(=O)[C@@H](NC(=O)[C@H](CO)NC(=O)[C@H](CO)NC(=O)[C@H](CC(C)C)NC(=O)[C@@H](N)CCCNC(=N)N)C(C)C)C(=O)N[C@@H](CCC(N)=O)C(=O)N[C@@H](CCCNC(=N)N)C(=O)N[C@@H](Cc1ccccc1)C(=O)N[C@@H](CCCNC(=N)N)C(=O)O`: the IC50 on HLA-A03.01 was 12.5 nM.

On to `CC(C)[C@H](NC(=O)[C@H](CCCNC(=N)N)NC(=O)[C@@H](N)CCCCN)C(=O)N[C@@H](CC(N)=O)C(=O)N[C@H](C(=O)N[C@@H](C)C(=O)N[C@@H](Cc1c[nH]c2ccccc12)C(=O)N[C@@H](CCCCN)C(=O)N[C@H](C(=O)N[C@@H](CCCCN)C(=O)O)[C@@H](C)O)[C@@H](C)O` (H-KRVNTAWKTK-OH; N-terminus and C-terminus assumed), for which the IC50 on HLA-A03.01 was 332 nM.

`CC(C)C[C@H](NC(=O)[C@H](CCC(N)=O)NC(=O)[C@H](CC(C)C)NC(=O)[C@H](Cc1c[nH]cn1)NC(=O)[C@H](CC(N)=O)NC(=O)[C@H](CCC(N)=O)NC(=O)[C@H](CCCNC(=N)N)NC(=O)[C@H](CO)NC(=O)[C@@H](N)CCCCN)C(=O)N[C@@H](CCCCN)C(=O)O` (H-KSRQNHLQLK-OH; N-terminus and C-terminus assumed): the IC50 at HLA-A03.01 turned out to be 4.7 nM.

On to `CC[C@H](C)[C@H](NC(=O)[C@@H](N)CCCCN)C(=O)N[C@@H](CO)C(=O)N[C@@H](CC(N)=O)C(=O)N[C@@H](Cc1c[nH]c2ccccc12)C(=O)N[C@@H](CO)C(=O)N[C@@H](CC(C)C)C(=O)N[C@@H](CCCCN)C(=O)N[C@@H](CCCCN)C(=O)N[C@H](C(=O)O)C(C)C` (H-KISNWSLKKV-OH; N-terminus and C-terminus assumed), for which the IC50 at HLA-A03.01 was 115 nM.

As to `C[C@@H](O)[C@H](NC(=O)[C@H](CCC(=O)O)NC(=O)[C@H](CCCCN)NC(=O)[C@H](CCCCN)NC(=O)[C@H](CCCCN)NC(=O)[C@H](CO)NC(=O)[C@@H](N)CCCCN)C(=O)N[C@@H](Cc1ccccc1)C(=O)N[C@@H](CCCCN)C(=O)N[C@@H](CCCCN)C(=O)O` (H-KSKKKETFKK-OH; N-terminus and C-terminus assumed), the IC50 on HLA-A03.01 worked out at 39.6 nM.

With `CC[C@H](C)[C@H](NC(=O)[C@H](C)NC(=O)[C@H](CS)NC(=O)[C@@H](NC(=O)[C@@H](N)Cc1ccc(O)cc1)[C@@H](C)O)C(=O)N[C@H](C(=O)N[C@H](C(=O)N[C@H](C(=O)N[C@@H](CCCCN)C(=O)O)C(C)C)[C@@H](C)O)[C@@H](C)O`, at HLA-A03.01, the IC50 stood at 122 nM.

On to `CC(C)[C@H](NC(=O)[C@@H](N)CCCNC(=N)N)C(=O)N[C@@H](CC(N)=O)C(=O)N[C@H](C(=O)N[C@@H](C)C(=O)N[C@@H](Cc1c[nH]c2ccccc12)C(=O)N[C@@H](CCCCN)C(=O)N[C@H](C(=O)N[C@@H](CCCCN)C(=O)N[C@@H](CCCCN)C(=O)O)[C@@H](C)O)[C@@H](C)O` (H-RVNTAWKTKK-OH; N-terminus and C-terminus assumed), for which, at HLA-A03.01, the IC50 was found to be 2.3 nM.

On to `CC[C@H](C)[C@H](N)C(=O)N[C@H](C(=O)N[C@H](C(=O)N[C@H](C(=O)N[C@@H](CCCCN)C(=O)N[C@@H](C)C(=O)N[C@H](C(=O)N[C@@H](CCC(=O)O)C(=O)N[C@H](C(=O)N[C@@H](CCCCN)C(=O)O)[C@@H](C)O)[C@@H](C)O)C(C)C)[C@@H](C)O)[C@@H](C)O` (H-ITTVKATETK-OH; N-terminus and C-terminus assumed), for which the IC50 at HLA-A03.01 was determined as 1250 nM.

Consider `CSCC[C@H](N)C(=O)N[C@@H](CC(C)C)C(=O)N[C@@H](CC(C)C)C(=O)N[C@@H](CCCNC(=N)N)C(=O)N[C@@H](CC(C)C)C(=O)N[C@@H](CC(N)=O)C(=O)N[C@@H](CC(C)C)C(=O)N[C@@H](CCCNC(=N)N)C(=O)N[C@@H](CCCCN)C(=O)O` (H-MLLRLNLRK-OH; N-terminus and C-terminus assumed), for which the IC50 on HLA-A03.01 came to 1.3 nM.

Turning to `CC(C)C[C@H](NC(=O)[C@H](C)NC(=O)[C@@H]1CCCN1C(=O)[C@@H](NC(=O)[C@H](CCCCN)NC(=O)[C@H](CCCCN)NC(=O)[C@H](CC(C)C)NC(=O)[C@@H](N)CO)C(C)C)C(=O)N[C@@H](CCCCN)C(=O)N[C@@H](CCCCN)C(=O)O` (H-SLKKVPALKK-OH; N-terminus and C-terminus assumed), at HLA-A03.01, the IC50 is 9.6 nM.

Consider `CSCC[C@H](NC(=O)[C@H](CC(C)C)NC(=O)[C@@H]1CCCN1C(=O)[C@@H](NC(=O)[C@H](CCCCN)NC(=O)[C@H](CCSC)NC(=O)[C@@H](N)CCCNC(=N)N)C(C)C)C(=O)N[C@@H](CCCCN)C(=O)O` (H-RMKVPLMK-OH; N-terminus and C-terminus assumed), for which the IC50 at HLA-A03.01 is 33 nM.

Regarding `CSCC[C@H](NC(=O)[C@@H](NC(=O)[C@H](Cc1ccccc1)NC(=O)[C@@H](N)CC(C)C)C(C)C)C(=O)N[C@@H](CO)C(=O)N[C@@H](CC(=O)O)C(=O)N[C@H](C(=O)N[C@H](C(=O)N[C@@H](Cc1ccc(O)cc1)C(=O)N[C@@H](CCCCN)C(=O)O)[C@@H](C)O)[C@@H](C)O` (H-LFVMSDTTYK-OH; N-terminus and C-terminus assumed), the IC50 at HLA-A03.01 was determined as 749 nM.

`CSCC[C@H](NC(=O)[C@@H](NC(=O)[C@H](Cc1ccc(O)cc1)NC(=O)[C@H](C)NC(=O)[C@H](CCSC)NC(=O)[C@@H](NC(=O)[C@@H](N)Cc1ccc(O)cc1)C(C)C)C(C)C)C(=O)N[C@@H](C)C(=O)NCC(=O)N[C@H](C(=O)O)C(C)C`: the “Stability (T1/2 (h))” value at HLA-A02.01 [1] turned out to be 20.9 h. Also, at HLA-A02.01 [2], the IC50 is 57 nM.

For the molecule `CSCC[C@H](NC(=O)[C@@H](N)C(C)C)C(=O)N[C@@H](C)C(=O)N[C@@H](Cc1ccc(O)cc1)C(=O)N[C@H](C(=O)N[C@@H](CCSC)C(=O)N[C@@H](C)C(=O)NCC(=O)N[C@H](C(=O)O)C(C)C)C(C)C` (H-VMAYVMAGV-OH; N-terminus and C-terminus assumed), on HLA-A02.01 [1], the “Stability (T1/2 (h))” value was determined as 16.5 h. Also, the IC50 at HLA-A02.01 [2] was 2 nM.

As to `CC[C@H](C)[C@H](N)C(=O)N[C@@H](CC(C)C)C(=O)N[C@@H](CCSC)C(=O)N[C@@H](CCC(=O)O)C(=O)N[C@@H](CC(C)C)C(=O)N[C@@H](CCSC)C(=O)N[C@@H](C)C(=O)NCC(=O)NCC(=O)O` (H-ILMELMAGG-OH; N-terminus and C-terminus assumed), at HLA-A02.01 [1], the “Stability (T1/2 (h))” value is reported as 0.5 h. Also, the IC50 on HLA-A02.01 [2] was 223 nM.

Turning to `CSCC[C@H](NC(=O)[C@H](CCC(=O)O)NC(=O)[C@H](CC(C)C)NC(=O)[C@H](CC(C)C)NC(=O)[C@H](CC(C)C)NC(=O)[C@H](CC(=O)O)NC(=O)[C@H](CS)NC(=O)[C@H](CC(C)C)NC(=O)[C@@H]1CCCN1)C(=O)O` (H-PLCDLLLEM-OH; N-terminus and C-terminus assumed), the “Stability (T1/2 (h))” value on HLA-A02.01 [1] is given as 0.8 h. The IC50 at HLA-A02.01 [2] turned out to be 602 nM.

As to `CSCC[C@H](NC(=O)[C@H](CCC(=O)O)NC(=O)[C@H](CC(C)C)NC(=O)[C@H](CC(C)C)NC(=O)[C@H](CC(C)C)NC(=O)[C@H](CC(=O)O)NC(=O)[C@H](CC(N)=O)NC(=O)[C@H](CC(C)C)NC(=O)[C@@H]1CCCN1)C(=O)O` (H-PLNDLLLEM-OH; N-terminus and C-terminus assumed), the “Stability (T1/2 (h))” value at HLA-A02.01 [1] is listed as 4.2 h. Further, the IC50 on HLA-A02.01 [2] came to 151 nM.

`CC[C@H](C)[C@H](NC(=O)[C@H](Cc1ccc(O)cc1)NC(=O)[C@H](CCC(=O)O)NC(=O)CNC(=O)[C@H](CO)NC(=O)[C@@H](N)Cc1ccccc1)C(=O)N1CCC[C@H]1C(=O)N[C@H](C(=O)N[C@H](C(=O)O)C(C)C)[C@@H](C)O` (H-FSGEYIPTV-OH; N-terminus and C-terminus assumed): at HLA-A02.01 [1], the “Stability (T1/2 (h))” value is listed as 6.8 h. The IC50 at HLA-A02.01 [2] was determined as 3 nM.

For `CC(C)C[C@H](NC(=O)[C@H](C)N)C(=O)N[C@@H](CO)C(=O)N[C@@H](CCC(=O)O)C(=O)N[C@@H](Cc1c[nH]cn1)C(=O)N[C@@H](CS)C(=O)N1CCC[C@H]1C(=O)N[C@H](C(=O)N[C@H](C(=O)O)[C@@H](C)O)[C@@H](C)O` (H-ALSEHCPTT-OH; N-terminus and C-terminus assumed), at HLA-A02.01 [1], the “Stability (T1/2 (h))” value was found to be 27.3 h. The IC50 at HLA-A02.01 [2] turned out to be 79 nM.

Turning to `CC(C)C[C@H](NC(=O)CN)C(=O)N[C@@H](CC(C)C)C(=O)N[C@@H](C)C(=O)N[C@@H](Cc1ccccc1)C(=O)N[C@@H](Cc1c[nH]c2ccccc12)C(=O)N[C@@H](CC(=O)O)C(=O)N[C@@H](CO)C(=O)N[C@@H](CCC(N)=O)C(=O)N[C@H](C(=O)O)C(C)C` (H-GLLAFWDSQV-OH; N-terminus and C-terminus assumed), on HLA-A02.01 [1], the “Stability (T1/2 (h))” value turned out to be 14.2 h. The IC50 on HLA-A02.01 [2] came to 10 nM.

`CC(C)C[C@H](NC(=O)CN)C(=O)N[C@H](C(=O)N[C@@H](CC(=O)O)C(=O)N[C@@H](CCC(=O)O)C(=O)N[C@@H](CCC(N)=O)C(=O)N[C@@H](CCC(N)=O)C(=O)N[C@@H](CCC(=O)O)C(=O)N[C@H](C(=O)O)C(C)C)C(C)C`: the “Stability (T1/2 (h))” value at HLA-A02.01 [1] was found to be 7.4 h. In addition, the IC50 at HLA-A02.01 [2] was determined as 44 nM.

Consider `CC(C)C[C@H](NC(=O)[C@@H](NC(=O)[C@H](CC(=O)O)NC(=O)[C@H](CC(C)C)NC(=O)[C@@H](NC(=O)[C@@H](N)Cc1ccc(O)cc1)[C@@H](C)O)C(C)C)C(=O)N[C@@H](CCC(=O)O)C(=O)N[C@@H](CCCNC(=N)N)C(=O)N[C@@H](CS)C(=O)O`, for which the “Stability (T1/2 (h))” value at HLA-A02.01 [1] is reported as 6.6 h. At HLA-A02.01 [2], the concentration for half-maximal inhibition (IC50) came out at 1760 nM.
